Source: ChEMBL document CHEMBL1133399, “2-(Alkylthio)pyrimidin-4-ones as novel, reversible inhibitors of lipoprotein-associated phospholipase A2” (Bioorg Med Chem Lett, 2000)
pIC50, pKi: −log10 of the molar value.

Biological target: T1, Platelet-activating factor acetylhydrolase (Homo sapiens) (UniProt Q13093)
T1 sequence (whole entry): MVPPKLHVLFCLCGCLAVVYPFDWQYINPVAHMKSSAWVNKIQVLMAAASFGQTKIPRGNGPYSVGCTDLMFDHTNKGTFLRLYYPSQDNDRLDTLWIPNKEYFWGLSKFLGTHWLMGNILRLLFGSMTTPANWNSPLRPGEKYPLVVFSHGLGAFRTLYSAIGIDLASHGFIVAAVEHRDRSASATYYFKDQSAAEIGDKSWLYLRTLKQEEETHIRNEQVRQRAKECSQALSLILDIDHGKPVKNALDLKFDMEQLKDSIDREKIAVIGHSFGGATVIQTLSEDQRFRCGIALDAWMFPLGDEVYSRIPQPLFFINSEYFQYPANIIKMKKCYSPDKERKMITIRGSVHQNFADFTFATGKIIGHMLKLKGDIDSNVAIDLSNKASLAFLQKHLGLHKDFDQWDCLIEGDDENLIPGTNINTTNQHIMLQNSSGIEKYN
Assay: The compound was tested for inhibition of Lipoprotein-associated phospholipase A2 (Lp-PLA2) at 30 uM

inhibition [%] | SMILES
10 | Cc1ccc(Cc2cnc(SCCCc3ccccc3)nc2O)cn1

Biological target: T2, Platelet-activating factor acetylhydrolase (Homo sapiens, UniProt Q13093)
T2 sequence (Q13093 whole entry): T1 sequence (whole entry)
Assay: The compound was tested for inhibition of Lipoprotein-associated phospholipase A2 (Lp-PLA2)

pKi | SMILES
7.39 | Cn1ccc(Cc2cnc(SCCCCCCCC(=O)c3ccc(Cl)cc3)[nH]c2=O)cc1=O

Biological target: T2, Platelet-activating factor acetylhydrolase
Assay: Inhibition of lipoprotein-associated phospholipase A2 (Lp-PLA2)

pIC50 | SMILES
5.54 | CC(=O)c1ccc(CCCCCCCCSc2ncc(Cc3cccnc3)c(O)n2)cc1
4.90 | O=S(=O)(CCCCCCCSc1ncc(Cc2cccnc2)c(O)n1)c1ccc(Cl)cc1
6.60 | Oc1nc(SCCCCCCCSc2ccc(Cl)cc2)ncc1Cc1cccnc1
6.00 | COc1cc(Cc2cnc(SCCCCCCCCc3ccccc3)nc2O)ccn1
6.96 | O=C(CCCCCCCSc1ncc(Cc2cccnc2)c(O)n1)c1ccc(Cl)cc1
6.07 | O=c1[nH]c(SCCCCCCCCc2cccc(Cl)c2)ncc1Cc1cccnc1
7.19 | O=C(CCCCCCCOc1ncc(Cc2cccnc2)c(=O)[nH]1)c1ccc(Cl)cc1
6.19 | O=C(CCCCCCCCSc1ncc(Cc2cccnc2)c(=O)[nH]1)c1ccc(Cl)cc1
5.96 | COc1ccc(CCCCCCCCSc2ncc(Cc3ccc(C)nc3)c(O)n2)cc1
6.70 | Oc1nc(SCCCCCCCCc2ccc(Cl)cc2)ncc1Cc1cccnc1
6.00 | Cc1ccc(Cc2cnc(SCCCCCCCc3ccccc3)nc2O)cn1
6.64 | Oc1nc(SCCCCCCCOc2ccc(Cl)cc2)ncc1Cc1cccnc1
7.27 | O=C(CCCCCCCSc1ncc(Cc2cncnc2)c(O)n1)c1ccc(Cl)cc1
6.00 | Cc1ccc(Cc2cnc(SCCCCCCCCCc3ccccc3)nc2O)cn1
6.37 | Oc1nc(SCCCCCCCCCc2ccccc2)ncc1Cc1cccnc1
5.89 | O=C(CCCCCCCSc1ncc(Cc2cccnc2)c(O)n1)c1cccs1
4.77 | [O-][S+](CCCCCCCSc1ncc(Cc2cccnc2)c(O)n1)c1ccc(Cl)cc1 (configuration not stated)

Continued, compound first:

SMILES | pIC50
Cn1ccc(Cc2cnc(SCCCCCCCC(=O)c3ccc(Cl)cc3)[nH]c2=O)cc1=O | 7.14
Cc1ccc(Cc2cnc(OCCCCc3ccccc3)nc2O)cn1 | 4.92
Oc1nc(SCc2ccc(F)cc2)ncc1Cc1cncnc1 | 6.07
CCCCn1ccc(Cc2cnc(SCCCCCCCCc3ccccc3)nc2O)cc1=O | 6.11
O=c1[nH]c(SCCCCCCc2ccccc2)ncc1Cc1cccnc1 | 5.64
O=c1[nH]c(SCc2ccccc2)ncc1Cc1ccncc1 | 5.36
O=c1[nH]c(SCc2ccc(Cl)cc2)ncc1Cc1cccnc1 | 5.36
O=c1[nH]c(SCc2ccccc2)ncc1Cc1cccnc1 | 5.96
Oc1nc(SCc2ccccc2)ncc1Cc1cncnc1 | 5.96
Cc1ccc(Cc2cnc(SCCCCCCOCc3ccc(Cl)cc3)[nH]c2=O)cn1 | 5.92
O=c1[nH]c(SCCCCCCCCc2ccccc2)ncc1Cc1ccncc1 | 6.20
O=C(CCCCCCCSc1ncc(Cc2cnccn2)c(=O)[nH]1)c1ccc(Cl)cc1 | 6.19

Biological target: T1, Platelet-activating factor acetylhydrolase (Homo sapiens)
Assay: The compound was tested for inhibition of Lipoprotein-associated phospholipase A2 (Lp-PLA2) at 10 uM

inhibition [%] | SMILES
41 | O=C(NCCCCCCSc1ncc(Cc2cccnc2)c(O)n1)c1ccc(Cl)cc1
40 | Cc1nc(SCCCCCCCC(=O)c2ccc(Cl)cc2)nc(O)c1Cc1cccnc1
38 | Oc1nc(SCCCCCCCCc2ccccc2)ncc1Cc1ccccn1

More lines, now with the values behind:

SMILES | inhibition [%]
O=C(CSc1ncc(Cc2cccnc2)c(O)n1)c1ccccc1 | 0
Oc1nc(SCCCCCCCCc2ccccc2)ncc1Cc1ccccc1 | 0
Oc1nc(SCCCCCCCCc2ccccc2)ncc1Cc1ccoc1 | 63
